Measured values published in ChEMBL document CHEMBL4385608, “5-Aryl-1,3,4-oxadiazol-2-ylthioalkanoic Acids: A Highly Potent New Class of Inhibitors of Rho/Myocardin-Related Transcription Factor (MRTF)/Serum Response Factor (SRF)-Mediated Gene Transcription as Potential Antifibrotic Agents for Scleroderma” (J Med Chem, 2019).
The source made the active and inactive calls. The calls are words filed in the database; no cut-off is given here.

How the values were obtained:
PC-3 [1] = experiment: Cytotoxicity against human PC3 cells assessed as reduction in cell viability up to 100 uM by WST-1 assay relative to control; type: cell-based
[2] = Inhibition of Rho/MRTF/SRF pathway (unknown origin) expressed in human PC3 cells assessed as reduction in Galpha12 Q231L-stimulated MRTF-selective SRE.L promoter-driven luciferase activity after overnight incubation by luminescence assay; type: cell-based
[3] = Inhibition of Rho/MRTF/SRF pathway (unknown origin) expressed in HEK293T cells assessed as reduction in Galpha12-stimulated MRTF-selective SRE.L promoter-driven luciferase activity after overnight incubation by luminescence assay; type: cell-based, Homo sapiens
[4] = Half-life in CD-1 mouse liver microsomes at 1 uM in presence of NADPH by LC-MS/MS analysis; type: ADME, Microsome
HEK-293T = experiment: Cytotoxicity against HEK293T cells assessed as reduction in cell viability up to 100 uM by WST-1 assay relative to control; type: cell-based; settings: human
PC-3 [5] = experiment: Cytotoxicity against human PC3 cells assessed as reduction in cell viability up to 100 uM by CellTiter-Fluor assay; type: cell-based
Homo sapiens [6] = species on record: Homo sapiens; experiment: Inhibition of Rho/MRTF/SRF pathway (unknown origin) expressed in human PC3 cells assessed as reduction in Galpha12 Q231L-stimulated MRTF-selective SRE.L promoter-driven luciferase activity up to 100 uM after overnight incubation by luminescence assay; type: cell-based
Homo sapiens [7] = species on record: Homo sapiens; experiment: Inhibition of Rho/MRTF/SRF pathway in human primary dermal fibroblasts assessed as reduction in LPA-stimulated CTGF mRNA expression by measuring CTGF mRNA level at 10^-6 M preincubated for 72 hrs followed by LPA stimulation and measured after 1 hr by qPCR analysis relative to control; set-up: scale not given: the % may be the effect or the level left

IC50 [2]	IC50 [3]	Structure (SMILES)	Activity (PC-3 [1])	Activity (HEK-293T)	further results
–	–	CNC(=O)CCSc1nnc(-c2ccc(Cl)cc2Cl)o1	< 5%	–	–
160 nM	–	COc1ccc(-c2nnc(SCCC(=O)O)o2)cc1	< 5%	–	–
340 nM	–	O=C(O)CCSc1nnc(-c2ccc(Cl)cc2)o1	< 5%	–	–
87000 nM	–	O=C(O)CCSc1nnc(-c2cccnc2)o1	–	–	–
–	> 100000 nM	O=C(O)CCCOc1nnc(-c2ccc(Cl)cc2Cl)o1	–	–	–
–	0.06 nM	O=C(O)CCCSc1nnc(-c2ccc(C(F)(F)F)cc2Cl)o1	–	< 5%	t1/2 [4]: > 1 h
–	–	O=C(O)CCCCSc1nnc(-c2ccc(Cl)cc2Cl)o1	< 5%	–	–
3100 nM	–	COc1ccccc1-c1nnc(SCCC(=O)O)o1	< 5%	–	–
> 100000 nM	–	COc1ccc(-c2nnc(SCCC(=O)O)n2C)cc1	–	–	–
–	0.0007 nM	CC(C)c1ccc(-c2nnc(SCCCC(=O)O)o2)c(Cl)c1	–	< 5%	–
–	–	Cc1ccc(=O)n(-c2ccccc2)c1 [PIRFENIDONE]	–	–	Activity (PC-3 [5]): Toxic; inhibition (Homo sapiens [6]): inactive; Activity (Homo sapiens [7]): 91%
–	20 nM	O=C(O)CCCSc1nnc(-c2cc(C3CC3)ccc2Cl)o1	–	< 5%	–
> 100000 nM	–	O=C(O)CCSc1nc2ccccc2n1Cc1ccccc1	–	–	–
–	< 0.0001 nM	CCCc1ccc(-c2nnc(SCCCC(=O)O)o2)c(Cl)c1	–	< 5%	–
> 100000 nM	–	O=C(O)CCSc1nc(-c2ccccc2)cc(=O)[nH]1	–	–	–
–	0.07 nM	O=C(O)CCCSc1nnc(-c2ccc(Br)cc2Cl)o1	–	< 5%	–
3500 nM	–	O=C(O)CCSc1nnc(-c2ccccc2)o1	< 5%	–	–
34 nM	–	Cc1ccc(-c2nnc(SCCC(=O)O)o2)cc1	< 5%	–	–
–	> 100000 nM	O=C(O)CCCc1nnc(-c2ccc(Cl)cc2Cl)o1	–	–	–
–	0.02 nM	Cc1ccc(-c2nnc(SCCC(=O)O)o2)c(Cl)c1C	–	< 5%	–
–	0.5 nM	CC(C)(F)c1ccc(-c2nnc(SCCCC(=O)O)o2)c(Cl)c1	–	< 5%	–
25 nM	–	O=C(O)CCSc1nnc(-c2ccccc2Cl)o1	< 5%	–	–
–	10000 nM	O=C(O)CCCSc1nnc(-c2ccccc2C(F)(F)F)o1	–	< 5%	–
–	11500 nM	O=C(O)CSCc1nnc(-c2ccc(Cl)cc2Cl)o1	–	–	–
–	0.23 nM	Cc1cc(Cl)c(-c2nnc(SCCC(=O)O)o2)cc1C	–	< 5%	–
